# Assay results reported in US8999981B2, “3-amido-pyrrolo[3,4-C]pyrazole-5(1H, 4H,6H) carbaldehyde derivatives” (Pfizer Inc., priority 2007, dated 2015).
# Molecular target: Protein Kinase C beta 2 (PKCβII) (Homo sapiens (Human), UniProt P05771)
# Experiment: PKCβII coupled PK/LDH spectrophotometric kinase assay
# Type: biochemical
# Conditions: apparent Ki, ATP-competitive model (Morrison equation); 0.1 mM ATP, 30° C.; read-out: PKCb Ki
# Experimental: This transfer is coupled to the oxidation of β-NADH through the activities of Pyruvate Kinase (PK) and Lactate Dehydrogenase (LDH). β-NADH conversion to NAD+ is monitored by the decrease in absorbance at 340 nm (e=6.22 cm^−1 mM^−1) using a Molecular Devices SPECTRA max PLUS spectrophotometer.
# A typical assay was carried out on a 96-well, clear microtiter plate in a Molecular Devices spectrophotometer for 20 minutes at 30° C. in 0.1 mL of assay buffer containing 50 mM HEPES, pH 7.4, 5 nM PKC, 23 units of pyruvate kinase, 33 units of lactate dehydrogenase, 0.15 mM peptide, 0.1 mM ATP, 1 mM DTT, 4 mM PEP, 8 mM MgCl2, 0.3 mM NADH, 60 mM CaCl2, 10 mg/mL PS, 50 ng/mL PMA, 7.5% DMSO and from about 10,000 nM to 0.169 nM compound inhibitor. Stock solutions of 3-sn-phosphatidyl-L-serine (PS) and phorbol-12-myristate-13-acetate (PMA) were sonicated for 30 seconds just prior to addition to assay buffer and assays were initiated by the addition of 100 μM ATP.
# Enzyme turnover values (kcat) were calculated according to […], where [E] is the total enzyme concentration. Enzyme inhibition constants (apparent K values) were determined by fitting initial velocities at variable inhibitor concentrations to a model for ATP competitive inhibition based on the Morrison equation). Morrison, J. F., Biochim. Biophys Acta 185: 269-286 (1969).
# Sequence of Protein Kinase C beta 2 (PKCβII) (P05771 other isoform, or with tags, fused parts or gaps): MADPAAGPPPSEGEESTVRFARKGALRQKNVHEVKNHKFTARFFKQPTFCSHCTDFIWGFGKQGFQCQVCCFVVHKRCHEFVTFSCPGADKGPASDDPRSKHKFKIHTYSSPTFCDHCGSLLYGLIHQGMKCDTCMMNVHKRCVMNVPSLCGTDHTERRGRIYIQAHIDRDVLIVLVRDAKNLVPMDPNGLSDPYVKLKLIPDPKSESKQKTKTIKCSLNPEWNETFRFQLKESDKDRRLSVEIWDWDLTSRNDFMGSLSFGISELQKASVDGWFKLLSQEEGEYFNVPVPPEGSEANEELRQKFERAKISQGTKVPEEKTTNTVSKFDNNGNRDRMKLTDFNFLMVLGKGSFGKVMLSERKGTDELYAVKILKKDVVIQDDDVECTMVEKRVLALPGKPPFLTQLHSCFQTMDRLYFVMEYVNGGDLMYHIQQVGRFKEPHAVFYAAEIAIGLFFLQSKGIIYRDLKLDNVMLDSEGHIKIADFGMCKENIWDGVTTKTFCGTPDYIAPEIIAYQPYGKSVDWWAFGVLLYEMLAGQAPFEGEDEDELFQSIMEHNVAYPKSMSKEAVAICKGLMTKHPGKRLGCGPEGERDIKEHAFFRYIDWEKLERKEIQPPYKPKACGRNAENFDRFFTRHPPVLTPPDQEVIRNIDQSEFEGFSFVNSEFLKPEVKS
row,Structure (SMILES),Ki
1,C[C@@H]1CN(C(=O)N2Cc3c(NC(=O)c4ccccn4)n[nH]c3C2(C)C)[C@@H](C)CN1Cc1cocn1 [Example A148],48.3 nM
2,C[C@@H]1CN(C(=O)N2Cc3c(NC(=O)c4ccc(F)cn4)n[nH]c3C2(C)C)[C@@H](C)CN1C1CCOCC1 [Example A149],< 10 nM
3,C[C@H]1CN(C)[C@H](CCO)CN1C(=O)N1Cc2c(NC(=O)c3ccccn3)n[nH]c2C1(C)C [Example A150],42 nM
4,C[C@H]1CN(C)[C@@H](CCO)CN1C(=O)N1Cc2c(NC(=O)c3ccccn3)n[nH]c2C1(C)C [Example A151],152 nM
5,C[C@@H]1CN(C(=O)N2Cc3c(NC(=O)c4ccccn4)n[nH]c3C23CC3)[C@@H](C)CN1CC1CCOCC1 [Example A152],76.2 nM
6,C[C@@H]1CN(C(=O)N2Cc3c(NC(=O)c4ccccn4)n[nH]c3C2(C)C)[C@@H](C)CN1CC1(C)COC1 [Example A153],37 nM
7,C[C@H](CCO)N1C[C@H](C)N(C(=O)N2Cc3c(NC(=O)c4ccccn4)n[nH]c3C2(C)C)C[C@H]1C [Example A154],25.1 nM
8,C[C@@H]1CN(C(=O)N2Cc3c(NC(=O)c4ccccn4)n[nH]c3C2(C)C)[C@@H](C)CN1[C@@H](C)CCO [Example A155],43.3 nM
9,C[C@@H]1CN(C(=O)N2Cc3c(NC(=O)c4ccccn4)n[nH]c3C2(C)C)[C@@H](C)CN1CCOCCO [Example A156],108 nM
10,Cc1nc(C)c(C(=O)Nc2n[nH]c3c2CN(C(=O)N2C[C@@H](C)N(CCCO)C[C@@H]2C)C3(C)C)o1 [Example A160],24.9 nM
11,C[C@@H]1CN(C(=O)N2Cc3c(NC(=O)c4ccc(F)cn4)n[nH]c3C2(C)C)[C@@H](C)CN1CCO [Example A161],38.8 nM
12,C[C@@H]1CN(C(=O)N2Cc3c(NC(=O)c4ccc(F)cn4)n[nH]c3C2(C)C)[C@@H](C)CN1CCCO [Example A162],21.7 nM
13,COCCCN1C[C@H](C)N(C(=O)N2Cc3c(NC(=O)c4ccc(F)cn4)n[nH]c3C2(C)C)C[C@H]1C [Example A163],24.5 nM
14,COCCN1C[C@H](C)N(C(=O)N2Cc3c(NC(=O)c4ccc(F)cn4)n[nH]c3C2(C)C)C[C@H]1C [Example A164],56.9 nM
15,"CC1(C)c2n[nH]c(NC(=O)c3ccccn3)c2CN1C(=O)C1(F)CCN(C2CCC2)CC1 [Example B1, Pyridine-2-carboxylic acid [5-(1-cyclobutyl-4-fluoro-piperidine-4-carbonyl)-6,6-dimethyl-1,4,5,6-tetrahydro-pyrrolo[3,4-c]pyrazol-3-yl]-amide]",75.3 nM
16,"CC1(C)c2[nH]nc(NC(=O)c3ccccn3)c2CN1C(=O)C1(F)CCN(C2CCOCC2)CC1 [Example B2, Pyridine-2-carboxylic acid {5-[4-fluoro-1-(tetrahydro-pyran-4-yl)-piperidine-4-carbonyl]-6,6-dimethyl-1,4,5,6-tetrahydro-pyrrolo[3,4-c]pyrazol-3-yl}-amide]",89.8 nM
17,Cc1nc(C)c(C(=O)Nc2n[nH]c3c2CN(C(=O)N2C[C@@H](C)N(C)C[C@@H]2C)C3(C)C)o1 [Example C2],50.3 nM
18,Cc1nc(C(=O)Nc2n[nH]c3c2CN(C(=O)N2C[C@@H](C)N(C)C[C@@H]2C)C3(C)C)cs1 [Example C3],35.1 nM
19,Cc1ocnc1C(=O)Nc1n[nH]c2c1CN(C(=O)N1C[C@@H](C)N(C)C[C@@H]1C)C2(C)C [Example C4],45.1 nM
20,Cc1ncoc1C(=O)Nc1n[nH]c2c1CN(C(=O)N1C[C@@H](C)N(C)C[C@@H]1C)C2(C)C [Example C5],46.5 nM
21,CCc1nc(C)c(C(=O)Nc2n[nH]c3c2CN(C(=O)N2C[C@@H](C)N(C)C[C@@H]2C)C3(C)C)o1 [Example C6],25.7 nM
22,CCc1ocnc1C(=O)Nc1n[nH]c2c1CN(C(=O)N1C[C@@H](C)N(C)C[C@@H]1C)C2(C)C [Example C7],66.4 nM
23,C[C@@H]1CN(C(=O)N2Cc3c(NC(=O)c4coc(C5CC5)n4)n[nH]c3C2(C)C)[C@@H](C)CN1C [Example C8],25 nM
24,CCc1cc(C(=O)Nc2n[nH]c3c2CN(C(=O)N2C[C@@H]4CCCN4C[C@@H]2C)C3(C)C)no1 [Example E1],61.6 nM
25,Cc1cnc(C(=O)Nc2n[nH]c3c2CN(C(=O)N2C[C@@H]4CCCN4C[C@@H]2C)C3(C)C)cn1 [Example E2],72.9 nM
26,C[C@H]1CN2CCC[C@H]2CN1C(=O)N1Cc2c(NC(=O)c3cc4ccccc4cn3)n[nH]c2C1(C)C [Example E3],5.51 nM
27,C[C@H]1CN2CCC[C@H]2CN1C(=O)N1Cc2c(NC(=O)c3ccc4cnccc4n3)n[nH]c2C1(C)C [Example E4],6.17 nM
28,COc1cccc(C(=O)Nc2n[nH]c3c2CN(C(=O)N2C[C@@H]4CCCN4C[C@@H]2C)C3(C)C)c1 [Example E5],37.5 nM

row,Structure (SMILES),Ki
1,C[C@H]1CN2CCC[C@H]2CN1C(=O)N1Cc2c(NC(=O)c3cc(C4CC4)n[nH]3)n[nH]c2C1(C)C [Example E6],6.81 nM
2,C[C@H]1CN2CCC[C@H]2CN1C(=O)N1Cc2c(NC(=O)c3cnc4ccccc4n3)n[nH]c2C1(C)C [Example E7],12.5 nM
3,C[C@H]1CN2CCC[C@H]2CN1C(=O)N1Cc2c(NC(=O)c3ccnn3C)n[nH]c2C1(C)C [Example E8],118 nM
4,Cc1nc(C(=O)Nc2n[nH]c3c2CN(C(=O)N2C[C@@H]4CCCN4C[C@@H]2C)C3(C)C)cs1 [Example E9],31.3 nM
5,C[C@H]1CN2CCC[C@H]2CN1C(=O)N1Cc2c(NC(=O)c3cc(C(C)(C)C)nn3C)n[nH]c2C1(C)C [Example E10],10.6 nM
6,Cc1nc(C)c(C(=O)Nc2n[nH]c3c2CN(C(=O)N2C[C@@H]4CCCN4C[C@@H]2C)C3(C)C)o1 [Example E11],28.9 nM
7,C[C@H]1CN2CCC[C@H]2CN1C(=O)N1Cc2c(NC(=O)c3cc(C4CC4)on3)n[nH]c2C1(C)C [Example E12],58.6 nM
8,C[C@H]1CN2CCC[C@H]2CN1C(=O)N1Cc2c(NC(=O)c3c(F)ccc(F)c3F)n[nH]c2C1(C)C [Example E13],135 nM
9,C[C@@H]1CN(C(=O)N2Cc3c(NC(=O)c4cn(C)cn4)n[nH]c3C2(C)C)[C@@H](C)CN1CC1CCOCC1 [Example E14],156 nM
10,"CCc1nc(C)c(C(=O)Nc2n[nH]c3c2CN(C(=O)N2C[C@@H](C)N(CC4CCOCC4)C[C@@H]2C)C3(C)C)o1 [Example F1, N-(5-{[(2S,5R)-2,5-dimethyl-4-(tetrahydro-2H-pyran-4-ylmethyl)piperazin-1-yl]carbonyl}-6,6-dimethyl-1,4,5,6-tetrahydropyrrolo[3,4-c]pyrazol-3-yl)-2-ethyl-4-methyl-1,3-oxazole-5-carboxamide]",22.4 nM
11,COCCCN1C[C@H](C)N(C(=O)N2Cc3c(NC(=O)c4cc(C)nc(C)n4)n[nH]c3C2(C)C)C[C@H]1C [Example F2],78.4 nM
12,COCCCN1C[C@H](C)N(C(=O)N2Cc3c(NC(=O)c4cnccn4)n[nH]c3C2(C)C)C[C@H]1C [Example F3],625 nM
13,CCc1cc(C(=O)Nc2n[nH]c3c2CN(C(=O)N2C[C@@H](C)N(CCCOC)C[C@@H]2C)C3(C)C)n(C)n1 [Example F4],37.3 nM
14,COCCCN1C[C@H](C)N(C(=O)N2Cc3c(NC(=O)c4oc(C)cc4C)n[nH]c3C2(C)C)C[C@H]1C [Example F5],71.8 nM
15,CCc1nc(C)c(C(=O)Nc2n[nH]c3c2CN(C(=O)N2C[C@@H](C)N(CCCOC)C[C@@H]2C)C3(C)C)o1 [Example F6],83.6 nM
16,COCCCN1C[C@H](C)N(C(=O)N2Cc3c(NC(=O)Cc4c(C)noc4C)n[nH]c3C2(C)C)C[C@H]1C [Example F7],67.1 nM
17,COCCCN1C[C@H](C)N(C(=O)N2Cc3c(NC(=O)c4ocnc4C)n[nH]c3C2(C)C)C[C@H]1C [Example F8],95.6 nM
18,C[C@@H]1CN(C(=O)N2Cc3c(NC(=O)c4cn(C)cn4)n[nH]c3C2(C)C)[C@@H](C)CN1CC1CCOCC1 [Example F9],62.4 nM
19,Cc1nc(C)c(C(=O)Nc2n[nH]c3c2CN(C(=O)N2C[C@@H](C)N(CC4CCOCC4)C[C@@H]2C)C3(C)C)s1 [Example F10],22.6 nM
20,C[C@@H]1CN(C(=O)N2Cc3c(NC(=O)c4cc(C5CC5)on4)n[nH]c3C2(C)C)[C@@H](C)CN1CC1CCOCC1 [Example F11],29.8 nM
21,Cc1cc(C(=O)Nc2n[nH]c3c2CN(C(=O)N2C[C@@H](C)N(CC4CCOCC4)C[C@@H]2C)C3(C)C)n(C)n1 [Example F12],33 nM
22,Cc1cc(C(=O)Nc2n[nH]c3c2CN(C(=O)N2C[C@@H](C)N(CC4CCOCC4)C[C@@H]2C)C3(C)C)no1 [Example F13],41.1 nM
23,CCn1nc(C)cc1C(=O)Nc1n[nH]c2c1CN(C(=O)N1C[C@@H](C)N(CC3CCOCC3)C[C@@H]1C)C2(C)C [Example F14],20 nM
24,CCc1ocnc1C(=O)Nc1n[nH]c2c1CN(C(=O)N1C[C@@H](C)N(CC3CCOCC3)C[C@@H]1C)C2(C)C [Example F15],52.1 nM
25,C[C@@H]1CN(C(=O)N2Cc3c(NC(=O)c4ccn(C)n4)n[nH]c3C2(C)C)[C@@H](C)CN1CC1CCOCC1 [Example F16],25.8 nM
26,C[C@@H]1CN(C(=O)N2Cc3c(NC(=O)c4cc(C5CC5)n[nH]4)n[nH]c3C2(C)C)[C@@H](C)CN1CC1CCOCC1 [Example F17],19.4 nM
27,CCc1cc(C(=O)Nc2n[nH]c3c2CN(C(=O)N2C[C@@H](C)N(CC4CCOCC4)C[C@@H]2C)C3(C)C)on1 [Example F18],32.1 nM
